# According to patent publication US10023836B2, “Medium for yeasts” (YAMAGUCHI UNIVERSITY, priority 2012, dated 2018):
# Where a name gives a salt, the structure may show the parent alone.
# Tests used:
# [1] = test system: RAK2683 yeast strain; assay: Candidate proliferation factors added to BM culture medium (FIG. 4); type: cell-based, Saccharomyces cerevisiae; details: 24 hours
# Protocol: Next, the yeast extract (M<5000) was further fractionated and proliferation was tested. […] As the substances having a molecular weight of roughly 500<M<1000, Acetyl-CoA, CoA, yeast RNA (RNA), and NAD were selected; each was added to a BM culture medium; and RAK2683 yeast strain was cultivated for 24 hours, after which OD600 was measured. Moreover, the yeast extract (YE)-added culture medium and YPD culture medium were treated as positive controls.
# [2] = test system: Candida utilis JCM9624 strain; assay: Nutritional requirements in AYD culture medium (FIG. 51); type: cell-based; details: component eliminated from AYD culture medium
# Protocol: (§1) In a case where no special provisions are made, a procedure for a cultivation experiment using the culture medium to be investigated for proliferation was such that a yeast undergoing investigation was pre-cultured in a YPD liquid culture medium at 28° C. for 24 hours, after which the yeast was adjusted such that OD600=20. […] In addition, OD600 was measured every 15 minutes by a spectrophotometer (Cell density meter co8000, WPA). Hereafter, data is represented by graphs for a case using the automatic spectrophotometer; however, these graphs are primarily used to compare the slope of logarithmic growth phase proliferation curves for each culture medium, and because OD600 is measured without dilution, values where OD600=3 to 3.5 or more may be incorrect.
# (§2) Each of the yeast strains was cultured under identical conditions using the basic culture method described above.
# [3] = test system: Candida albicans JCM1542 strain; assay: Nutritional requirements in AYD culture medium (FIG. 52); type: cell-based; details: component eliminated from AYD culture medium
# Protocol: as §1, §2
# [4] = test system: Candida glabrata BY23876 strain; assay: Nutritional requirements in AYD culture medium (FIG. 50); type: cell-based; details: component eliminated from AYD culture medium
# Protocol: In a case where no special provisions are made, a procedure for a cultivation experiment using the culture medium to be investigated for proliferation was such that a yeast undergoing investigation was pre-cultured in a YPD liquid culture medium at 28° C. for 24 hours, after which the yeast was adjusted such that OD600=20. Thereafter, 5 μL of culture solution was inoculated in 5 mL of each culture medium to be investigated, which had been dispensed into L-shaped test tubes (final OD60=0.02); aerobic roller tube culture was performed at 28° C.; and OD was continuously measured with an automatic spectrophotometer (BioPhoto recorder TVS062CA, […]). In addition, OD600 was measured every 15 minutes by a spectrophotometer (Cell density meter co8000, WPA). Hereafter, data is represented by graphs for a case using the automatic spectrophotometer; however, these graphs are primarily used to compare the slope of logarithmic growth phase proliferation curves for each culture medium, and because OD600 is measured without dilution, values where OD600=3 to 3.5 or more may be incorrect.
# Nutritional requirements of each of the following yeast strains were investigated in the AYD culture medium, and utility of the AYD culture medium was confirmed. Each of the yeast strains was cultured under identical conditions using the basic culture method described above.
# [5] = test system: RAK3599 strain; assay: Vitamin and FeCl3 concentration in AKD′ culture medium (FIGS. 22 to 28); type: cell-based, Saccharomyces cerevisiae; details: for proliferation at a content of 0: AKD′ culture medium without the substance
# Protocol: as §1
# Pyridoxine concentration in the AKD′ culture medium was adjusted to 0, 0.004, 0.04, 0.4, 4, and 40 μg/mL, respectively, and proliferation of the RAK3599 strain was investigated.
# Pantothenic acid concentration in the AKD′ culture medium was adjusted to 0, 0.004, 0.04, 0.4, 4, and 40 μg/mL, respectively, and proliferation of the RAK3599 strain was investigated.
# Thiamine concentration in the AKD′ culture medium was adjusted to 0, 0.004, 0.04, 0.4, 4, and 40 μg/mL, respectively, and proliferation of the RAK3599 strain was investigated.
# Nicotinic acid concentration in the AKD′ culture medium was adjusted to 0, 0.004, 0.04, 0.4, 4, and 40 μg/mL, respectively, and proliferation of the RAK3599 strain was investigated.
# Myo-inositol concentration in the AKD′ culture medium was adjusted to 0, 0.02 μg/mL, 0.2 μg/mL, 2 μg/mL, 20 μg/mL, and 200 μg/mL, respectively, and proliferation of the RAK 3599 strain was investigated.
# FeCl3 concentration in the AKD′ culture medium was adjusted to 0, 0.002, 0.02, 0.2, 2, and 20 μg/mL, respectively, and proliferation of the RAK3599 strain was investigated.
# [6] = test system: RAK2683 yeast strain; details: glucose not added to BM culture medium; 2% ethanol, 2% glycerol or 0.1 to 2% albumin; 24 hours
# Protocol: OD600 was measured after RAK2683 yeast strain had been cultivated for 24 hours in a culture medium in which between 0.1 and 2% albumin had been added to the BM culture medium.
# [7] = test system: commercially available baker's yeast; assay: Investigation of carbon source added instead of glucose in BM culture medium (FIG. 5); type: cell-based; details: 2% added singly instead of glucose in BM culture medium, 28° C., 24 hours
# Protocol: OD600 was measured after commercially available baker's yeast had been cultivated at 28° C. for 24 hours in a culture medium in which 2% of sugars such as galactose, raffinose, trehalose, fructose, maltose, mannose, sucrose, and ribose, or DNA (negative control) had been added instead of glucose in the BM culture medium.
# [8] = test system: Saccharomyces cerevisiae RAK3599 strain; assay: Leucine concentration in AKD culture medium, RAK3599 strain (FIG. 16B); type: cell-based
# [9] = test system: Saccharomyces cerevisiae leucine-requiring RAK778 strain (BY4712 (leu2Δ0) strain); assay: Leucine concentration in AKD culture medium, leucine-requiring strain (FIG. 16A); type: cell-based
# Description: Leucine concentration in the AKD culture mediums was adjusted to 0%, 0.0001%, 0.001%, 0.01%, 0.1%, and 1%, respectively, and proliferation of a Saccharomyces cerevisiae leucine-requiring RAK778 strain (BY4712 (leu2Δ0) strain) was investigated. […] Given the above-noted results, a preferred leucine concentration was understood to be around 0.1%.
# [10] = test system: RAK2683 yeast strain; assay: Investigation of nitrogen source used singly in MM culture medium instead of ammonium sulfate (Table 4); type: cell-based, Saccharomyces cerevisiae; details: Table 4 conditions
# [11] = test system: commercially available baker's yeast; assay: Aspartic acid swapped with ammonium sulfate, compared with MM and YPD (FIG. 2); type: cell-based; details: between 0.5 and 2.0% aspartic acid added
# Protocol: In Table 4, a culture medium was prepared in which aspartic acid (Asp), which had the highest value for OD600 after 48 hours, was swapped with ammonium sulfate, and the proliferation of yeast (commercially available baker's yeast) in the MM culture medium and YPD was compared. […] Based on this information, a BM culture medium in which 2% aspartic acid had been added as a nitrogen source to 0.17% YNB and 2% glucose was used as an object of investigation.
compound,measurement,setting,value
CC(=O)SCCNC(=O)CCNC(=O)[C@H](O)C(C)(C)COP(=O)(O)OP(=O)(O)OC[C@H]1O[C@@H](n2cnc3c(N)ncnc32)[C@H](O)[C@@H]1OP(=O)(O)O [Acetyl-CoA],proliferation compared with YPD,[1],none of them reaching the proliferation level of YPD
"O=S(=O)([O-])[O-].[Zn+2] [Zn2+, zinc sulfate]",nutritional requirement of the strain,[2],preferable for proliferation
same,nutritional requirement of the strain,[3],preferable for proliferation
O=C(O)CCCC[C@@H]1SC[C@@H]2NC(=O)N[C@@H]21 [biotin],nutritional requirement of the strain,[4],require
same,nutritional requirement of the strain,[2],not require
same,nutritional requirement of the strain,[3],require
same,concentration at which proliferation was slightly inhibited,[5]; AKD′ culture medium,200 µg/L
same,preferred concentration,[5]; AKD′ culture medium,around 2 μg/L
same,proliferation at a content of 0,[5],Almost no proliferation
CCO [ethanol],proliferation as carbon source,[6],almost no proliferation
OC[C@H]1O[C@H](O[C@H]2O[C@H](CO)[C@@H](O)[C@H](O)[C@H]2O)[C@H](O)[C@@H](O)[C@@H]1O [trehalose],proliferation as carbon source,[7],no proliferation whatsoever
O=C[C@H](O)[C@H](O)[C@H](O)CO [ribose],proliferation as carbon source,[7],no proliferation whatsoever
"Cc1ncc(CO)c(CO)c1O.Cl [pyridoxine, Pyridoxine hydrochloride]",nutritional requirement of the strain,[4],require
same,preferred concentration,[5]; AKD′ culture medium,around 400 μg/L
same,proliferation at a content of 0,[5],A fair degree of proliferation
CC(C)(COP(=O)(O)OP(=O)(O)OC[C@H]1O[C@@H](n2cnc3c(N)ncnc32)[C@H](O)[C@@H]1OP(=O)(O)O)[C@@H](O)C(=O)NCCC(=O)NCCS [CoA],proliferation compared with YPD,[1],none of them reaching the proliferation level of YPD
"CC(C)C[C@H](N)C(=O)O [Leucine, L-Leucine]",concentration at which proliferation was inhibited,[8],1%
same,concentration at which almost no proliferation was observed,[9],less than 0.001%
same,concentration at which proliferation reached a maximum value,[9],0.1%
same,concentration at which proliferation was inhibited,[9],1%
same,preferred concentration,[9]; from results with RAK778 and RAK3599 strains,around 0.1%
OCC(O)CO [glycerol],proliferation as carbon source,[6],almost no proliferation
"Cc1ncc(C[n+]2csc(CCO)c2C)c(N)n1 [thiamine, Thiamine hydrochloride]",nutritional requirement of the strain,[4],require
same,nutritional requirement of the strain,[2],require
same,preferred concentration,[5]; AKD′ culture medium,around 400 μg/L
same,proliferation at a content of 0,[5],A fair degree of proliferation
NC(=O)c1ccc[n+]([C@@H]2O[C@H](COP(=O)([O-])OP(=O)(O)OC[C@H]3O[C@@H](n4cnc5c(N)ncnc54)[C@H](O)[C@@H]3O)[C@@H](O)[C@H]2O)c1 [NAD],proliferation compared with YPD,[1],none of them reaching the proliferation level of YPD
"N[C@@H](CC(=O)[O-])C(=O)[O-].O.[Na+].[Na+] [Aspartic acid, L-Aspartic acid sodium salt monohydrate]",proliferation when added singly as nitrogen source,[10],favorable proliferation
same,proliferation compared with ammonium sulfate-added culture medium,[11],proliferation markedly improved over that of a culture medium to which ammonium sulfate had been added
albumin,proliferation as carbon source,[6],almost no proliferation
O=C(O)c1cccnc1 [nicotinic acid],nutritional requirement of the strain,[4],require
same,concentration at which proliferation reached a maximum value,[5]; AKD′ culture medium,4 µg/mL
same,concentration at which proliferation was inhibited,[5]; AKD′ culture medium,40 µg/mL
same,preferred concentration,[5]; AKD′ culture medium,around 4000 μg/L
same,proliferation at a content of 0,[5],A significant degree of proliferation
same,OD600 after 24 hours,"[5]; AKD′ culture medium, nicotinic acid 0 μg/mL",9
same,OD600 after 24 hours,"[5]; AKD′ culture medium, nicotinic acid 0.004 μg/mL",10
same,OD600 after 24 hours,"[5]; AKD′ culture medium, nicotinic acid 0.04 μg/mL",10
same,OD600 after 24 hours,"[5]; AKD′ culture medium, nicotinic acid 0.4 μg/mL",9
same,OD600 after 24 hours,"[5]; AKD′ culture medium, nicotinic acid 4 μg/mL",10
same,OD600 after 24 hours,"[5]; AKD′ culture medium, nicotinic acid 40 μg/mL",8
